The values below come from patent US20230181598A1, “FORMULATIONS AND METHODS OF TREATING COVID-19 AND PREVENTING INFECTION WITH SARS-CoV-2” (priority 2020, published 2023).

A word on the solubility: it is the concentration that dissolves in the medium under given conditions.

The test system of series [1] is SARS-CoV-2 (strain USA-WA1/2020). Description: microbe, parasite or virus in culture. Type of series: cell-based. Conditions: for Log10 CCID50 virus per 0.2 mL / Log10 Reduction in virus titer (CCID50) vs virus control: dNHBE cells; for Average Log10 CCID50 virus per 0.2 mL: average of duplicate inserts.
The conditions of series [2]: cited from earlier work.
[3] abbreviates: 0.1 μM, single insert, day 5 after infection.

In brackets after ≈: the same amount, converted by molar mass. Several values for one entry are separate records, joined by “and”; a condition that tells them apart may be missing. Equal entries are not always repeated. Where two headings read alike, the source gives them in different places.

As to `CCC(CC)COC(=O)[C@H](C)N[P@](=O)(OC[C@H]1O[C@@](C#N)(c2ccc3c(N)ncnn23)[C@H](O)[C@@H]1O)Oc1ccccc1` [Remdesivir], the “Log10 CCID50 virus per 0.2 mL” value in series [1] (0.001 μM, day 5) was determined as 4.0 Log10 CCID50 per 0.2 mL; in series [1] (0.01 μM, day 5) it was 3.3 Log10 CCID50 per 0.2 mL; in series [1] (setting [3]), 2.7 Log10 CCID50 per 0.2 mL; in series [1] (1.0 μM, day 5), 2.0 Log10 CCID50 per 0.2 mL. Further, the EC90 was 9 nM in series [1] (Severe acute respiratory syndrome coronavirus 2, Vero 76) and 9 nM in series [1] (Severe acute respiratory syndrome coronavirus 2, Vero 76, 120 h, read-out: EC90 (concentration to reduce virus yield by 1 log10, regression analysis) (converted)).
Take `CCOC(=O)C1=C(COCCN)NC(C)=C(C(=O)OC)C1c1ccccc1Cl` (racemic) [Amlodipine besylate, 3-Ethyl-5-methyl (±)-2-[(2-aminoethoxy)methyl]4-(2-chlorophenyl)-1,4-dihydro-6-methyl-3,5-pyridinedicarboxylate, monobenzenesulphonate]: the solubility in ethanol entry in series [2] (ethanol) is reported as “sparingly soluble”. In addition, in series [2] (water), the solubility in water entry is given as “slightly soluble”.
As to `CCOC(=O)C1=C(COCCN)NC(C)=C(C(=O)OC)C1c1ccccc1Cl` (centres unmarked) [Amlodipine], in series [1] (0.1 μM, day 5), the “Average Log10 CCID50 virus per 0.2 mL” value is reported as 3.6 Log10 CCID50 per 0.2 mL. Moreover, the “Log10 Reduction in virus titer (CCID50) vs virus control” value is listed as 0.7 Log10 in series [1] (0.1 μM, day 5) and about 1 Log10 in series [1] (0.1 μM, day 5, listed as amlodipine). The “Log10 CCID50 virus per 0.2 mL” value in series [1] (setting [3]) is 3.7 Log10 CCID50 per 0.2 mL and 3.5 Log10 CCID50 per 0.2 mL.
With `CC#C[C@]1(O)CC[C@H]2[C@@H]3CCC4=CC(=O)CCC4=C3[C@@H](c3ccc(N(C)C)cc3)C[C@@]21C` [Mifepristone, 11β-(4-dimethylaminophenyl)-17β-hydroxy-17α-(1-propynyl)-estra-4,9-dien-3-one], the “Average Log10 CCID50 virus per 0.2 mL” value in series [1] (5 μM, day 5) worked out at 3.5 Log10 CCID50 per 0.2 mL. The “Log10 Reduction in virus titer (CCID50) vs virus control” value in series [1] (5 μM, day 5) is listed as 0.8 Log10; in series [1] (5 μM, day 5, listed as mifepristone) it was about 1 Log10. For the same compound, the solubility in series [2] (acidic media, pH 1.5) is listed as about 25 mg/mL (≈ 58.2 mM); in series [2] (pH values above 2.5), “less than 1 mg/mL”.
